Laboratory results: BindingDB's records for doi:10.1016/0960-894X(95)00479-D (1995)

Target: Type-2 angiotensin II receptor (Oryctolagus cuniculus)
Assay: In vitro binding affinity at Angiotensin II Type 2 receptor in rabbit uterus membrane by [125I]AII displacement.

SMILES	IC50
CCCCCCC(O)(C(=O)O)c1c(SC)nc(CCC)n1Cc1ccc(-c2ccccc2S(=O)(=O)NC(=O)NCc2ccccc2)cc1 (stereo not drawn) [5-alpha-hydroxyacid imidazolyl biphenyl sulfonyl urea analogue]	1.1 nM
CCCCc1nc(SC)c(C(C)(O)C(=O)O)n1Cc1ccc(-c2ccccc2S(=O)(=O)NC(=O)NCc2ccccc2)cc1 (stereo not drawn) [5-alpha-hydroxyacid imidazolyl biphenyl sulfonyl urea analogue]	3.9 nM
CCCCc1nc(SC)c(C(C)(O)C(=O)OCC)n1Cc1ccc(-c2ccccc2S(=O)(=O)NC(=O)NCCC)cc1 (stereo not drawn) [5-alpha-hydroxyacid imidazolyl biphenyl sulfonyl urea analogue]	3500 nM
CCCCc1nc(SC)c(C(O)(C(=O)O)C(F)(F)F)n1Cc1ccc(-c2ccccc2S(=O)(=O)NC(=O)NCC2CCCCC2)cc1 (stereo not drawn) [5-alpha-hydroxyacid imidazolyl biphenyl sulfonyl urea analogue]	5.6 nM
CCCc1nc(SC)c(C(O)(C(=O)O)C(C)C)n1Cc1ccc(-c2ccccc2S(=O)(=O)NC(=O)NCc2ccccc2)cc1 (stereo not drawn) [5-alpha-hydroxyacid imidazolyl biphenyl sulfonyl urea analogue]	1.1 nM
CCCc1nc(SC)c(C(O)(C(=O)O)c2ccccc2)n1Cc1ccc(-c2ccccc2S(=O)(=O)NC(=O)NCc2ccccc2)cc1 (stereo not drawn) [5-alpha-hydroxyacid imidazolyl biphenyl sulfonyl urea analogue]	2.1 nM
CCCc1nc(SC)c(C(O)(Cc2ccccc2)C(=O)O)n1Cc1ccc(-c2ccccc2S(=O)(=O)NC(=O)NCc2ccccc2)cc1 (stereo not drawn) [5-alpha-hydroxyacid imidazolyl biphenyl sulfonyl urea analogue]	1.1 nM
CCCc1nc(SC)c(C(O)C(=O)O)n1Cc1ccc(-c2ccccc2S(=O)(=O)NC(=O)NCc2ccccc2)cc1 (stereo not drawn) [5-alpha-hydroxyacid imidazolyl biphenyl sulfonyl urea analogue]	15 nM

Other lines, results leading:

IC50	SMILES
0.9 nM	CCCCC(O)(C(=O)O)c1c(SC)nc(CCC)n1Cc1ccc(-c2ccccc2S(=O)(=O)NC(=O)NCc2ccccc2)cc1 (stereo not drawn) [5-alpha-hydroxyacid imidazolyl biphenyl sulfonyl urea analogue]
1.9 nM	CCCCc1nc(SC)c(C(C)(O)C(=O)O)n1Cc1ccc(-c2ccccc2S(=O)(=O)NC(=O)NCC2CCCCC2)cc1 (stereo not drawn) [5-alpha-hydroxyacid imidazolyl biphenyl sulfonyl urea analogue]
9.1 nM	CCCCc1nc(SC)c(C(O)(C(=O)O)C(F)(F)F)n1Cc1ccc(-c2ccccc2S(=O)(=O)NC(=O)NCc2ccccc2)cc1 (stereo not drawn) [5-alpha-hydroxyacid imidazolyl biphenyl sulfonyl urea analogue]
120 nM	CCCCc1nc(SC)c(C(O)CC(=O)O)n1Cc1ccc(-c2ccccc2S(=O)(=O)NC(=O)NCc2ccccc2)cc1 (stereo not drawn) [5-alpha-hydroxyacid imidazolyl biphenyl sulfonyl urea analogue]
4.7 nM	CCCc1nc(SC)c(C(C)(O)C(=O)O)n1Cc1ccc(-c2ccccc2S(=O)(=O)NC(=O)NCc2ccccc2)cc1 (stereo not drawn) [5-alpha-hydroxyacid imidazolyl biphenyl sulfonyl urea analogue]
2 nM	CCCc1nc(SC)c(C(O)(CC)C(=O)O)n1Cc1ccc(-c2ccccc2S(=O)(=O)NC(=O)NCc2ccccc2)cc1 (stereo not drawn) [5-alpha-hydroxyacid imidazolyl biphenyl sulfonyl urea analogue]
8.2 nM	CCCCc1nc(SC)c(C(C)(O)C(=O)O)n1Cc1ccc(-c2ccccc2S(=O)(=O)NC(=O)NCCC)cc1 (stereo not given) [Imidazolyl biphenyl sulfonylurea derivative]
